From patent US20040101488A1, “Method for the prevention of septic shock lethality using curcumin” (priority 2000, published 2004)
“Also recorded” adds a separate entry of the source.

How the values were obtained:
[1] = system: mice injected with lipopolysaccharide (septic shock); assay: LPS-induced septic shock in mice: survival and symptoms; format: in vivo; conditions: none prior
[2] = system: adhesion of human peripheral neutrophils to endothelial cells from human umbilical cord; assay: Cell adherence assay: neutrophil adhesion to endothelial monolayers; format: cell-based
Experimental: Endothelial cells grown to confluency in 96 well plates were incubated without or with indicated concentrations of curcumin for 1 hr followed by induction without (hatched bars) or with (closed bars) LPS (1 μg/ml) for 6 hrs. The cells were then incubated with human peripheral neutrophils for 1 hr. The amount of neutrophils adhering to the endothelial cell monolayers was measured by a colorimetric assay as described in Example 6.
Primary endothelial cells were isolated from human umbilical cord. For isolation of the cells the umbilical cord vein was canulated and then perfused with phosphate buffer saline to remove blood and then incubated with 0.125% trypsin for 15 mins at 37° C. The vein was then perfused with PBS and the cells were collected. […] The viability of endothelial cells in culture was checked by trypan blue exclusion test and the purity was determined by E-selectin staining. […]
Adhesion of neutrophils to endothelial monolayers was assayed as described previously (Dobrina A et al., J. Clin. Invest., 88:20-26 1991). […] The absorbance was determined at […] using an automated microplate reader (Anthos Labtech HT2, Austria).

[3] = system: mice injected with lipopolysaccharide (septic shock); assay: LPS-induced septic shock in mice: survival and symptoms; format: in vivo; conditions: for Percentage Survival: prior to and after LPS (40 mg/kg i.p.), mice
Experimental: In septic shock experiments, age-and body weight-matched (25-30 g) female swiss albino mice were injected intraperitoneally with 40 mg/kg LPS solubilised in 200 μl sterile 0.9% saline. Control animals received equal volumes of saline. For groups that were treated with curcumin, the mice were fed orally with 20 mg/kg to 60 mg/kg body weight curcumin suspended in olive oil (20 mg/ml) at various times prior to and after injecting LPS. The mice were fed with curcumin 4 hrs and 2 hrs prior to, simultaneously and 4 hrs, 16 hrs, 24 hrs, 48 hrs and 72 hrs after injecting LPS. Following this, the mice were observed every 2-3 hours after LPS injection with respect to septic shock symptoms such as fever, lethargy, diarrhea, watery eyes and survival.
Intraperitoneal injection of high doses of LPS (40 mg/kg) induced lethal endotoxin shock in mice. […] The death occurred within 24-48 hrs after receiving LPS. To test whether curcumin protects mice injected with LPS from septic shock, we treated mice with varying doses of curcumin 4 hrs and 2 hrs prior to, simultaneously and 4 hrs, 16 hrs, 24 hrs, 48hrs and 72 hrs after injecting LPS. […] Overall, severity of the septic shock symptoms in treated group was much less in comparison with control groups (as shown in Table 2). The mice start recovering within 48 to 72 hrs. Most importantly, 70% of the mice treated with 40 mg/kg to 60 mg/kg curcumin survived from death (FIG. 1).

[4] = system: neutrophils in the liver of LPS injected mice; assay: Liver histology, chloroacetate esterase staining of neutrophils after LPS challenge; conditions: 24 hrs after LPS challenge, liver sections, FIG. 2

## COc1cc(/C=C/C(=O)CC(=O)/C=C/c2ccc(O)c(OC)c2)ccc1O [curcumin, diferuloylmethane]
[1]; curcumin only simultaneously with and after LPS (3, 6, 9, 24, 42 hrs)
  survival of recovered mice on repeated LPS injection: all the animals survived; also recorded: all survived death
[1]; curcumin only simultaneously with and after LPS
  severity of septic shock symptoms in recovered mice on repeated LPS injection: significant reduction in severity of septic shock symptoms
[2]; 10 μM to 40 μM curcumin for 1 hr, no LPS
  adhesion of neutrophils to unstimulated endothelial monolayers: did not affect
[2]; curcumin 40 μM for 1 hr, then LPS 1 μg/ml for 6 hrs, concentration dependent over 10 to 40 μM
  inhibition of neutrophil adhesion to LPS stimulated endothelial cells: almost complete inhibition
[3]; 40 mg/kg to 60 mg/kg curcumin orally, LPS 40 mg/kg i.p., FIG. 1
  mice survived from death: 70%
[3]; curcumin 20 mg/kg body weight orally
  Percentage Survival: 0%
[3]; curcumin 40 mg/kg body weight orally
  Percentage Survival: 70%
[3]; curcumin 60 mg/kg body weight orally
  Percentage Survival: 70%
[3]; curcumin treated mice, LPS 40 mg/kg i.p., lethargy, watery eyes, diarrhea
  severity of the septic shock symptoms versus control groups: much less
[3]; low dose, LPS 40 mg/kg i.p.
  protection of mice by low dose of curcumin: not able to protect the mice
[4]
  extravasation of neutrophils in the liver versus untreated mice: much reduced
